In ChEMBL document CHEMBL5120754, “Structural modification aimed for improving solubility of lead compounds in early phase drug discovery” (Bioorg Med Chem, 2022):

Experiment: physchem
Conditions: buffer

Row | solubility thermodynamic | SMILES
1 | 28.5 µM | CCn1nc(-c2cccc(Cl)c2)nc2c(=O)n(C)c(=O)nc1-2
2 | 10 µg/mL | CC(=O)NC[C@@H]1OC(=O)N2c3ccc(-c4ccc(C#N)nc4)cc3OC[C@@H]12
3 | 0.03 µM | CC(C)(C)OC(=O)N1CCN(c2ncc(OCc3ccc(S(C)(=O)=O)cc3)cn2)CC1
4 | 17 µg/mL | C/C(=C1/C(=O)Nc2ccc(NC(N)=O)cc21)c1cc(CNC(=O)C2CCNCC2)c[nH]1
5 | 13 µg/mL | CN(C)CCNC(=O)c1cccc(-c2c[nH]c(/C=C3\C(=O)Nc4ccc(NC(N)=O)cc43)c2)c1
6 | 1500 µg/mL | COc1c(C(=O)Nc2ccc(NS(C)(=O)=O)cc2)cc(N2CCC(=O)NC2=O)cc1C(C)(C)C
7 | 773 µM | NC(=O)NCCSc1nc(N)nc(-c2c(Cl)cc3c4c(cccc24)COC3)n1
8 | 147 µg/mL | COc1cnc(-n2cnc(C)n2)c2[nH]cc(C(=O)C(=O)N3CCN(C(=O)c4ccccc4)CC3)c12
9 | 3 µg/mL | Nc1ncc(-c2nc(N3CCOCC3)nc3c2CCN3C(=O)Nc2ccccc2)cn1
10 | 500 µM | COc1ccc(CNc2c3c(nc4ccc(C#N)cc24)CCN(C(C)=O)C3)cc1Cl
11 | 2000 µg/mL | NC(=O)Nc1ccc2c(c1)/C(=C/c1ccc[nH]1)C(=O)N2
12 | 0.43 µM | COc1cc(NCc2cc3cc(Cl)ccc3[nH]c2=O)ccc1C#N
13 | 0.04 µM | COc1cc(NCc2cc3cc(C)c(C)cc3[nH]c2=O)ccc1-n1cnnn1
14 | 29 µg/mL | NC(=O)Nc1ccc2c(c1)/C(=C/c1cc(-c3ccccn3)c[nH]1)C(=O)N2
15 | 227000 µg/mL | C[C@H]1[C@H](COP(=O)([O-])[O-])OC(=O)N1c1ccc(-c2ccc([C@@H]3CN(C)C(=O)O3)nc2)cc1O.[Na+].[Na+]
16 | 276 µg/mL | CN1C(=O)CCC(N2C(=O)c3ccccc3C2=O)C1=O (centres undefined)

Row | solubility thermodynamic | SMILES
17 | 1 µg/mL | Cc1sc(-c2ccccc2)nc1CCOc1ccc(CC(Nc2ccccc2C(=O)c2ccccc2)C(=O)O)cc1 (centres undefined)
18 | 210 µg/mL | COCCCc1nc(CCOc2ccc(CC(Nc3ccccc3C(=O)c3ccccc3)C(=O)O)cc2)c(C)s1 (centres undefined)
19 | 200 µM | O=c1nc2n(CCCC(F)(F)F)nc(-c3cccc(C(F)(F)F)c3)nc-2c(=O)n1CCC1CC1
20 | 1 µg/mL | CCCOc1ccc(CC(Cc2ccccc2)C(=O)O)cc1CNC(=O)c1ccc(C23CC4CC(CC(C4)C2)C3)cc1 (centres undefined)
21 | 10000 µg/mL | Cc1sc(N2CCNCC2)nc1CCOc1ccc(CC(Nc2ccccc2C(=O)c2ccccc2)C(=O)O)cc1 (centres undefined)
22 | 142000 µg/mL | O=C1NC(c2ccccc2)(c2ccccc2)C(=O)N1COP(=O)([O-])O.[Na+]
23 | 180 µg/mL | Cc1sc(N2CCOCC2)nc1CCOc1ccc(CC(Nc2ccccc2C(=O)c2ccccc2)C(=O)O)cc1 (centres undefined)
24 | 153 µg/mL | O=c1cc(-c2c(F)cccc2F)oc2ccc3ccccc3c12
25 | 10 µg/mL | Oc1nc2cc(Cl)c(Cl)c(Cn3cncn3)c2nc1O
26 | 1 µg/mL | CC(=O)Nc1nc2c(Oc3cc(-c4ccc(C(F)(F)F)cc4)ncn3)cccc2s1 [AMG-517]
27 | 216 µM | O=C(NCCN1CCCC1)c1cc(-c2ccc(CN3CCOCC3)cc2)nc2ccc(F)cc12 [CABAMIQUINE]
28 | 28 µg/mL | c1cn2cc(-c3ccc4cn[nH]c4c3)nc(Nc3ccc(N4CCOCC4)cc3)c2n1 [ENTOSPLETINIB]
29 | 11000 µg/mL | COc1cnc(-n2cnc(C)n2)c2c1c(C(=O)C(=O)N1CCN(C(=O)c3ccccc3)CC1)cn2COP(=O)(O)O [FOSTEMSAVIR]
30 | 50000 µg/mL | Cn1nnc(-c2ccc(-c3ccc(N4C[C@H](COP(=O)(O)O)OC4=O)cc3F)cn2)n1 [TEDIZOLID PHOSPHATE]
31 | 136 µg/mL | Cn1nnc(-c2ccc(-c3ccc(N4C[C@H](CO)OC4=O)cc3F)cn2)n1 [TEDIZOLID]

Row | SMILES | solubility thermodynamic
32 | CN(C)CCn1cc(C(=O)NC23CC4CC(CC(C4)C2)C3)c(=O)c2ccc(F)cc21 | 5.6 µg/mL
33 | CCC1(O)C(=O)OCc2c1cc1n(c2=O)Cc2c-1nc1ccc(O)cc1c2CN(C)C (centres undefined) | 1000 µg/mL
34 | CCCCCn1cc(C(=O)NC23CC4CC(CC(C4)C2)C3)c(=O)c2ccc(F)cc21 | 0.014 µg/mL
